Laboratory results taken from patent US10598672B2, “Methods and compositions for diagnosing and treating loss and/or distortion of taste or smell” (Cyrano Therapeutics, Inc., priority 2014, dated 2020).

Assays:
Type in all cases: in vivo, human
hyposmic patients = experiment: Subjective responses in smell, flavor and taste function (1-100 scale) after oral theophylline
Text: The term “subjective improvement” as used herein and its grammatical equivalents can refer to measurements of improvement in perception for all external odors based upon a scale of 1-100 with 100 indicating complete recovery of normal smell function with responses from 1-100 scaled appropriately. […] Subjective improvement in taste function can also be measured with changes in taste for salt, sweet, sour and bitter tastants measured on the same 1-100 scale with 100 indicating return to normal for each of the four tastants considered and responses <100 scaled consistently less.
Thirty-one of the hyposmic patients were treated with oral theophylline with a dose range of 200-800 mg taken over a period of 2-10 months. These patients were 18 men, aged 12-78 y, 62+5 y, with six with PIHH, 10 with allergic rhinitis, one with congenital smell loss and one post anesthesia and 13 women, aged 12-67 y, 42±6 y, with four with PIHH, one with allergic rhinitis and eight with congenital smell loss. Improvement in smell function consisted of improvement in both subjective responses to oral theophylline and in olfactometry. Subjective improvement in smell function consisted of measurements of improvement in perception for all external odors based upon a scale of 1-100 with 100 indicating complete recovery of normal smell function with responses from 1-100 scaled appropriately. […] Subjective improvement in taste function was also measured with changes in taste for salt, sweet, sour and bitter tastants measured on the same 1-100 scale with 100 indicating return to normal for each of the four tastants considered and responses <100 scaled consistently less. Improvement by olfactometry was indicated by decreased DT or RT (increased sensitivity), increased ME (increased sensitivity) and changes in H consistent with decreased distortions.

[1] = test system: patients with hyposmia and hypogeusia; experiment: Open-label pilot study oral vs intranasal theophylline: subjective smell and taste function by questionnaire (0-100)
Text: (§1) We performed an open-label pilot study in patients with hyposmia and hypogeusia under the following 3 conditions: (1) before treatment, (2) after oral theophylline treatment, and (3) after intranasal theophylline treatment. Under each condition, we performed subjective evaluations of taste or smell functions, quantitative measurements of taste (gustometry) and smell (olfactometry), and measurements of serum theophylline level and body weight.
Subjective changes in smell and taste function under each study condition were measured by questionnaire before measurements of smell or taste function. Responses were graded on a scale from 0 to 100, with 0 reflecting no subjective response in overall sensory function; 100, return to normal sensory function; and values between 0 and 100 intermediate responses. Overall sensory function was defined as the ability to smell all odors and identify all tastants, although response intensity varied.
The 10 patients in this intranasal pilot study entered into the previous oral theophylline study according to a protocol approved by the institutional review board of the Georgetown University Medical Center. In this prior trial, oral theophylline was administered daily in 2 divided doses (at breakfast and lunch) of 200, 400, 600, or 800 mg for 2 to 12 months of treatment. Treatment was divided into 2- to 4-month periods, at which time patients returned to The Clinic for measurements of subjective sensory responses, olfactometry, gustometry, serum theophylline level, and body weight. […] In the 10 patients selected for the intranasal pilot study, oral theophylline treatment was discontinued 3 weeks to 4 months before initiation of the intranasal drug trial. At that time, the mean (SEM) serum theophylline level was unmeasurable in any patient (0 [0] mg/L).
(§2) A pilot study of intranasal theophylline treatment was then initiated among these 10 patients. This trial was an investigator initiated phase 1, open-label, single-source, controlled pilot study. Intranasal drug therapy reflected a compassionate trial of a potentially more useful therapeutic method to improve hyposmia (and hypogeusia) than oral theophylline. Before the intranasal trial, risks and benefits were explained and the patients signed an informed consent.
The intranasal administration device was a calibrated 1 mL syringe fitted with a nozzle that fit comfortably into the anterior naris (Wolfe Tory Medical, Inc.) and loaded under sterile conditions with 20 μg of theophylline methylpropyl paraben in a 0.4-mL saline solution (Foundation Care). Patients were instructed to direct the spray superiorly into the nasal cavity but not posteriorly into the nasopharynx. This technique was practiced before study initiation with sterile saline.
(§3) Each patient delivered the theophylline dose in each naris once daily throughout the study. Patients underwent evaluation 1, 2, and 4 weeks during drug use with the same measurements used for the oral study.
Values for the oral trial were taken from the last measurements made before discontinuation of oral drug treatment and before initiation of the intranasal trial. This period varied from 2 to 12 months after oral treatment initiation and reflected the maximal improvement in sensory function each patient experienced. Values for the intranasal pilot study were taken from measurements obtained after completion of 4 weeks of intranasal treatment.
The mean and standard error of the mean for all values obtained at each study condition were compared. Differences were considered significant if P<0.05 by the unpaired t test. Paired comparison tests were also used with differences considered significant if P<0.05 by the t test.

[2] = Serum theophylline level by fluorescence polarization
Procedure: (§4) Serum theophylline levels were measured by fluorescence polarization at each treatment condition. Body weight was measured with a calibrated clinical scale during each study condition and reported at the final measurement in each study condition.

[3] = Body weight with calibrated clinical scale; settings: 10 patients
Procedure: as §4

[4] = test system: patients with hyposmia and hypogeusia; experiment: Adverse effects during intranasal theophylline pilot study; settings: intranasal drug use, 10 patients, 4 weeks
Text: as §1, §2, §3

[5] = 31 patients, oral theophylline, listed as ORAL THEOPHYLLINE
[6] = 31 patients, oral theophylline, listed as oral theophylline
[7] = oral theophylline, scale 1-100, listed as ORAL THEOPHYLLINE
[8] = oral theophylline, scale 1-100, listed as oral theophylline
[9] = after discontinuation of intranasal treatment

SMILES: Cn1c(=O)c2[nH]cnc2n(C)c1=O [theophylline]
- FLAVOR FUNCTION IMPROVED, number of patients (hyposmic patients; 31 patients, oral theophylline): 19
- FLAVOR FUNCTION NOT IMPROVED, % of patients studied (hyposmic patients; 31 patients, oral theophylline): [39] %
- FLAVOR FUNCTION NOT IMPROVED, number of patients (hyposmic patients; 31 patients, oral theophylline): 12
- SMELL FUNCTION NOT IMPROVED, % of patients studied (hyposmic patients; 31 patients, oral theophylline): [39] %
- SMELL FUNCTION NOT IMPROVED, number of patients (hyposmic patients; 31 patients, oral theophylline): 12
- TASTE FUNCTION IMPROVED, number of patients (hyposmic patients; 31 patients, oral theophylline): 20
- TASTE FUNCTION NOT IMPROVED, % of patients studied (hyposmic patients; 31 patients, oral theophylline): [36] %
- TASTE FUNCTION NOT IMPROVED, number of patients (hyposmic patients; 31 patients, oral theophylline): 11
- SMELL FUNCTION IMPROVED, number of patients (hyposmic patients; 31 patients, oral theophylline 200-800 mg for 2-10 months): 19
- SMELL FUNCTION IMPROVED, % of patients studied (hyposmic patients; 31 patients, oral theophylline 200-800 mg for 2-10 months, listed as ORAL THEOPHYLLINE): [61] %
- SMELL FUNCTION IMPROVED, % of patients studied (hyposmic patients; 31 patients, oral theophylline 200-800 mg for 2-10 months, listed as oral theophylline): 61%
- FLAVOR FUNCTION IMPROVED, % of patients studied (hyposmic patients; [5]): [61] %
- TASTE FUNCTION IMPROVED, % of patients studied (hyposmic patients; [5]): [64]^d %
- FLAVOR FUNCTION IMPROVED, % of patients studied (hyposmic patients; [6]): 61%
- TASTE FUNCTION IMPROVED, % of patients studied (hyposmic patients; [6]): 64%
- SMELL FUNCTION IMPROVED, RESPONSE RANGE (hyposmic patients; improved patients (19), scale 1-100): 2-100%
- SMELL FUNCTION IMPROVED, RESPONSE Mean ± SEM (hyposmic patients; improved patients (19), scale 1-100, listed as ORAL THEOPHYLLINE): 34 ± 6%
- SMELL FUNCTION IMPROVED, RESPONSE Mean ± SEM (hyposmic patients; improved patients (19), scale 1-100, listed as oral theophylline): 34±6%
- FLAVOR FUNCTION NOT IMPROVED, RESPONSE Mean ± SEM (hyposmic patients; oral theophylline): 0
- FLAVOR FUNCTION NOT IMPROVED, RESPONSE RANGE (hyposmic patients; oral theophylline): 0%
- SMELL FUNCTION IMPROVED MEN, number of patients (hyposmic patients; oral theophylline): 11
- SMELL FUNCTION NOT IMPROVED, RESPONSE Mean ± SEM (hyposmic patients; oral theophylline): 0
- SMELL FUNCTION NOT IMPROVED, RESPONSE RANGE (hyposmic patients; oral theophylline): 0%
- TASTE FUNCTION NOT IMPROVED, RESPONSE Mean ± SEM (hyposmic patients; oral theophylline): 0
- TASTE FUNCTION NOT IMPROVED, RESPONSE RANGE (hyposmic patients; oral theophylline): 0%
- FLAVOR FUNCTION IMPROVED, RESPONSE Mean ± SEM (hyposmic patients; oral theophylline, scale 1-100): 43 ± 8
- FLAVOR FUNCTION IMPROVED, RESPONSE RANGE (hyposmic patients; oral theophylline, scale 1-100): 1-100%
- SMELL FUNCTION IMPROVED MEN, RESPONSE RANGE (hyposmic patients; oral theophylline, scale 1-100): 3-95%
- SMELL FUNCTION IMPROVED WOMEN, RESPONSE RANGE (hyposmic patients; oral theophylline, scale 1-100): 2-100%
- TASTE FUNCTION IMPROVED, RESPONSE Mean ± SEM (hyposmic patients; oral theophylline, scale 1-100): 47 ± 8
- TASTE FUNCTION IMPROVED, RESPONSE RANGE (hyposmic patients; oral theophylline, scale 1-100): 3-100%
- SMELL FUNCTION IMPROVED MEN, RESPONSE Mean ± SEM (hyposmic patients; [7]): 27 ± 9%
- SMELL FUNCTION IMPROVED WOMEN, RESPONSE Mean ± SEM (hyposmic patients; [7]): 43 ± 17%
- SMELL FUNCTION IMPROVED MEN, RESPONSE Mean ± SEM (hyposmic patients; [8]): 27±9%
- SMELL FUNCTION IMPROVED WOMEN, RESPONSE Mean ± SEM (hyposmic patients; [8]): 43±17%
- SMELL FUNCTION IMPROVED WOMEN, number of patients (hyposmic patients; oral theophylline, listed as ORAL THEOPHYLLINE): 8
- SMELL FUNCTION IMPROVED WOMEN, number of patients (hyposmic patients; oral theophylline, listed as oral theophylline): eight
- patients reporting some persistence of improvement after 10 weeks [1, 9]: Four
- patients with loss of smell and taste function after 6 weeks [1, 9]: 2 patients
- patients with loss of smell and taste function within 1 week of discontinuation [1, 9]: 2 patients
- earliest improvement measured after starting treatment ([1]; intranasal treatment): 1 week
- improvement measured for taste or smell functions compared with oral treatment ([1]; intranasal, 4 weeks, subjective): 2 fold
- patients who reported no improvement ([1]; of 10 patients, intranasal treatment): 2 patients
- patients with improved taste or smell acuity / overall improvement in taste or smell functions ([1]; of 10 patients, intranasal, 20 μg in each naris once daily, 4 weeks): 8 patients
- patients who reported no improvement ([1]; of 10 patients, oral treatment): 4 patients
- patients with improved taste or smell acuity / overall increased taste or smell function ([1]; of 10 patients, oral, 200 to 800 mg/d for 2 to 12 months): 6 patients
- earliest improvement of hyposmia measured after ([1]; oral treatment): 2 months
- mean (SEM) serum theophylline level ([2]; during oral treatment, at time of maximum improvement, 10 patients): 6.4 (2.0) mg/L
- concentration at 4 weeks ([2]; human, serum, other: intranasal, 20 μg per naris, during intranasal treatment): 0 ng/mL
- weight increase from pretreatment values, mean (SEM) ([3]; after intranasal treatment): 2.5 (0.5) kg
- weight increase from pretreatment values, mean (SEM) ([3]; after oral treatment): 1.5 (0.4) kg
- adverse effects [4]: No adverse effects
